According to BindingDB's records for doi:10.1016/j.bmcl.2012.09.045 (East China University of Science and Technology, 2012):

Molecular target: T1, Bile acid receptor (Homo sapiens, UniProt Q96RI1)
T1 sequence (Q96RI1 whole entry): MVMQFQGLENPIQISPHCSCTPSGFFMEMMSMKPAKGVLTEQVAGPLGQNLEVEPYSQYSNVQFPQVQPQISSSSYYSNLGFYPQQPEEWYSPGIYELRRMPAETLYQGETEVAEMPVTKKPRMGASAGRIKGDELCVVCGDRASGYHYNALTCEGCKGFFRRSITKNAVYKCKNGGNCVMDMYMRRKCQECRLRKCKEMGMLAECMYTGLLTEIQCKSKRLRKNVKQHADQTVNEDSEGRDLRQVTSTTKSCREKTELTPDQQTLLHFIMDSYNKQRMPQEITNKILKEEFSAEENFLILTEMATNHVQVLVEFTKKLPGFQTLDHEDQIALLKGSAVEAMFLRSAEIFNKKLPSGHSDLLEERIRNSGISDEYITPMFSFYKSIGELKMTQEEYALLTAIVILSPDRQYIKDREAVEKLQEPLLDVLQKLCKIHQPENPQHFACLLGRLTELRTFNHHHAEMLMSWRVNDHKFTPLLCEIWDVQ
Assay: Agonist activity at FXR

Compound: COC(=O)/C=C/c1cccc(N(Cc2ccc(-c3ccc(C(C)(C)C)cc3)cc2)C(=O)C(C)C)c1
- EC50: 343 nM
